Patent US20210315474A1, “DECOUPLED COIL ASSEMBLIES, MAGNETIC RESONANCE SYSTEMS AND METHODS OF USE” (FluoID Inc, priority 2018, published 2021)

Test: 19F magnetic resonance imaging in vivo: tracking isoflurane in rat brain
Conditions: live Sprague-Dawley rat
From the text: A MR system is utilized for this representative imaging experiment.
Here, indirect inverse irradiation focused on 19F is utilized to provide rapid and specific identification of the target molecule of interest while observing 1H, while circulating in a subject organism.
A live Sprague-Dawley rat was secured in the bed of the representative holding assembly of Example 1B. The RF coil elements were situated such that the area around its head was encircled to provide complete coverage for the brain of the animal, then the assembly placed in the MRI system of Example 1C. Localization of the spin species of interest, 19F, was accomplished with a spin-echo (or, alternatively, gradient-echo) sequence preceded with a magnetization transfer (MT) pulse allowing magnetization from 19F to 1H. The rat was subjected to increasing stepwise amounts of isoflurane, an inhaled general anesthetic with chemical structure CF3-CHCl—O—CHF2, over 30 minutes (see Table 2), then the flow was halted.
Anatomical MR images were obtained also using a standard spin-echo (or alternatively, gradient-echo) sequence. The MT pulse duration and strength were maintained constant prior to the signal acquisition by the surface coil.

Structure (SMILES): FC(F)OC(Cl)C(F)(F)F (centres unmarked) [isoflurane]
- 19F signal seen in the brain (level of the drug reaching the CNS in real time) (inhaled isoflurane increased stepwise 1%-3% over 30 minutes, MT pulse 19F to 1H, FIG. 17): increasing amount of 19F signal seen in the brain
- concentration of isoflurane in the brain after cessation of anesthetic delivery (over the 30 minutes following cessation of anesthetic delivery (not shown)): disappearance of the concentration of isoflurane in the brain could be observed
